Assay results taken from US20230219886A1, “NOVEL SELENO-NSAID ANALOGS AND USES THEREOF” (THE PENN STATE RESEARCH FOUNDATION, priority 2020, published 2023).
Read-outs that look alike come from different tables or passages of the source.

How the values were obtained:
[1] = test system: HT-29 (CRC); assay: MTT cell viability assay, HT-29; conditions: Homo sapiens
Method: (§1) Cell Culture Conditions. The cell lines were obtained from the American Type Culture Collection (ATCC). PANC-1 and Caco-2 cell lines were maintained in DMEM medium (Gibco); HT-29, HCT-116 and RKO cells were maintained in McCoy's 5A medium (Gibco); and DU-145 and H1299 cells were maintained in RPMI 1640 medium (Gibco), supplemented with 10% fetal bovine serum (FBS; Gibco) and 1% antibiotics (10.00 units/mL penicillin and 10.00 mg/mL streptomycin; Gibco). Cells were preserved in tissue culture flasks at 37° C. and 5% CO2. Culture medium was replaced every three days.
(§2) Cell Viability Assay. The effect of each compound on cell viability was tested using the MTT assay (81). Briefly, 9000 cells/well were grown in 96-well plates for 12 h. Then these cells were incubated with either DMSO (control) or nine different concentration between 0.01-50 μM of the test compounds for 24, 48, and 72 h. Three hours before the termination point, 20 μL of MTT were added to measure cellular viability. The resultant formazan crystals were dissolved in 50 μL of DMSO, and absorbance was measured at 570 nm and 630 nm wavelengths. IC50, GI50, TGI and LC50 values were calculated using OriginPro 8.5.1.
(§3) Evaluation of the antiproliferative activities of the novel molecules. […] These four cell lines were treated with each compound at three concentrations (5, 25 and 50 μM) for 48 h.

[2] = test system: HCT-116 CRC cells; assay: MTT cell viability assay, HCT-116; type: cell-based, human; conditions: Homo sapiens
Method: as §1, §2

[3] = test system: CACO-2 CRC cells; assay: cells; conditions: for IC50: Homo sapiens
Method: as §1, §2

[4] = test system: RKO CRC cells; assay: cells; conditions: Homo sapiens
Method: as §1, §2

[5] = test system: PANC-1 (pancreatic carcinoma); assay: MTT cell viability assay, Panc-1; conditions: Homo sapiens, PANC-1, 48 h, read-out: cell viability
Method: as §1, §2, §3

[6] = test system: DU-145 (prostate carcinoma); assay: MTT cell viability assay, DU-145; conditions: Homo sapiens, DU-145, 48 h, read-out: cell viability
Method: as §1, §2, §3

[7] = test system: H1299 (lung carcinoma); assay: MTT cell viability assay, H1299; conditions: Homo sapiens, NCI-H1299, 48 h, read-out: cell viability
Method: as §1, §2, §3

[8] = HT-29, 48 h, read-out: cell viability

Compound | IC50 ([1]; HT-29, 24 h) [µM] | IC50 ([1]; HT-29, 48 h) [µM] | IC50 ([1]; HT-29, 72 h) [µM] | IC50 ([2]; HCT-116, 24 h) [µM] | IC50 ([2]; HCT-116, 48 h) [µM] | IC50 ([2]; HCT-116, 72 h) [µM] | IC50 ([3]; Caco-2, 24 h) [µM] | IC50 ([3]; Caco-2, 48 h) [µM] | IC50 ([3]; Caco-2, 72 h) [µM] | IC50 ([4]; 24 h) [µM] | IC50 ([4]; 48 h) [µM] | IC50 ([4]; 72 h) [µM] | IC50 ([2]; HCT-116, 24 h, read-out: IC50) [µM] | IC50 ([2]; HCT-116, 48 h, read-out: IC50) [µM] | IC50 ([2]; HCT-116, 72 h, read-out: IC50) [µM] | effect on CACO-2 viability [3] | further results
COc1ccc2c(c1)c(CC(=O)[Se]Cc1ccccc1)c(C)n2C(=O)c1ccc(Cl)cc1 [Compound 5c, Se-benzyl 2-(1-(4-chlorobenzoyl)-5-methoxy-2-methyl-1H-indol-3-yl)ethane-selenoate] | > 50 | 4.2 ± 0.5 | 4 ± 1 | > 50 | 14 ± 6.6 | 5.5 ± 1.2 | > 50 | > 50 | > 50 | > 50 | 26.2 ± 4.6 | 11.5 ± 0.9 |  |  |  |  | 
CC[Se]C(=O)CC1=C(C)/C(=C/c2ccc([S+](C)[O-])cc2)c2ccc(F)cc21 (stereo not drawn) [Compound 6b, Se-ethyl (Z)-2-(5-fluoro-2-methyl-1-(4-(methylsulfinyl)benzylidene)-1H-inden-3-yl)ethaneselenoate] | 10.9 ± 1.4 | 4.9 ± 0.2 | 5 ± 0.1 |  |  |  | > 50 | > 50 | > 50 | > 50 | 41.8 ± 13.8 | 12.4 ± 0.5 | > 50 | 6.2 ± 0.9 | 7.2 ± 1 | no effect | 
CC[Se]C(=O)c1ccccc1OC(C)=O [Compound 1b, 2-((ethylselanyl)carbonyl)phenyl acetate] | > 50 | 4.2 ± 0.4 | 4.2 ± 0.9 |  |  |  | > 50 | > 50 | > 50 | > 50 | > 50 | > 50 | > 50 | 13.2 ± 2.6 | 6.8 ± 4.2 | no effect | 
COc1ccc2cc([C@H](C)C(=O)[Se]C)ccc2c1 [Compound 3a, Se-methyl (S)-2-(6-methoxynaphthalen-2-yl)propaneselenoate] |  |  |  |  |  |  |  |  |  |  |  |  |  |  |  |  | viability at 5 µM [5]: 46.7 ± 9.7%; viability at 25 µM [5]: 34.4 ± 6.3%; viability at 50 µM [5]: 30.5 ± 6%; viability at 5 µM [1, 8]: 52.2 ± 30.9%; viability at 25 µM [1, 8]: 41.8 ± 26.4%; viability at 50 µM [1, 8]: 46.4 ± 24.7%; viability at 5 µM [6]: 56.2 ± 18.4%; viability at 25 µM [6]: 35 ± 16.1%; viability at 50 µM [6]: 31.4 ± 23.6%; viability at 5 µM [7]: 48.3 ± 5.4%; viability at 25 µM [7]: 42.4 ± 2.7%; viability at 50 µM [7]: 34.3 ± 1.3%
CC(=O)Oc1ccccc1C(=O)[Se]Cc1ccccc1 [Compound 1c, 2-((benzylselanyl)carbonyl)phenyl acetate] | > 50 | 4.8 ± 0.2 | 4.8 ± 0.1 | > 50 | 8 ± 2.1 | 8.2 ± 2.2 | > 50 | > 50 | 11.8 ± 5.9 | > 50 | 10.4 ± 0.1 | 5 ± 0.1 |  |  |  |  | 
CC[Se]C(=O)Cc1c(C)n(C(=O)c2ccc(Cl)cc2)c2ccc(OC)cc12 [Compound 5b, Se-ethyl 2-(1-(4-chlorobenzoyl)-5-methoxy-2-methyl-1H-indol-3-yl)ethane-selenoate] | > 50 | 4.9 ± 0.3 | 4.9 ± 0.1 |  |  |  | > 50 | > 50 | > 50 | > 50 | 30.8 ± 3.5 | 33.3 ± 16.9 | > 50 | 6.3 ± 1.6 | 8.2 ± 1.7 | no effect | 
CC1=C(CC(=O)[Se]Cc2ccccc2)c2cc(F)ccc2/C1=C\c1ccc([S+](C)[O-])cc1 (stereo not drawn) [Compound 6c, Se-benzyl (Z)-2-(5-fluoro-2-methyl-1-(4-(methylsulfinyl)benzylidene)-1H-inden-3-yl)ethaneselenoate] | > 50 | 5.1 ± 0.1 | 5.2 ± 0.2 | > 50 | 7.8 ± 1.8 | 7 ± 0.8 | > 50 | 11.4 ± 1.6 | 14.2 ± 3.9 | > 50 | > 50 | 35.8 ± 5.9 |  |  |  |  | 
